Reference: patent publication US12064420B2, “Tie-2 activators targeting the Schlemm's canal” (EyePoint Pharmaceuticals, Inc., priority 2019, dated 2024)

Columns and labels:
Tie-2 = Tie-2 phosphorylation in Schlemm's canal, whole mount immunofluorescence; assay type: in vivo, mouse; conditions: 1 hour after single topical ocular administration of 4% eye drops
Description: VE-PTP expression was assessed in the endothelium of SC in VE-PTP knock-in reporter mice expressing a nuclear-localizing β-galactosidase from the endogenous VE-PTP promoter (VE-PTP+/mut). C57BL/6JRj mice were also used in the experiments as control animals. Mice were anaesthetized using ketamine (125 mg/kg) and xylazine (12.5 mg/kg). 10 μL of Compound 1 eye drop solution (4% Compound 1) or vehicle was applied to each eye. Mice were euthanized 1 hour following dosing, and the eyes were processed for immunofluorescence analysis to detect Tie-2 phosphorylation. […]
To evaluate VE-PTP mediated signaling, tyrosine phosphorylation and activation of Tie-2 in SC following VE-PTP inhibition was assessed one hour following a single topical ocular administration of Compound 1. […]

[1] = system: ocular normotensive patients; assay: Phase 1B multiple-ascending dose study of Compound 1 ophthalmic solution, IOP; assay type: in vivo, human; conditions: for mean diurnal IOP reduction in the study eye, relative to the 15 mg/mL dose: ANCOVA model
Description: A multi-center, double-masked, randomized, placebo-controlled, multiple-ascending dose (MAD) cohort study in up to 48 ocular normotensive patients was conducted. For subjects in cohort 1, IOP was between 12 mmHg and 23 mmHg (inclusive) in both eyes on Day −1. Cohorts 2-4 were limited to subjects with pre-treatment IOP≥16 mmHg and ≤23 mmHg in at least one eye and ≤23 mmHg in both eyes at all timepoints on two separate days of IOP assessment during screening. Subjects who received additional carbonic-anhydrase inhibiting drops or cholinergic agonist drops were washed-out for at least 7 days prior to Day −1.
On Day −1 (day before first day of dosing), day 1, and day 7, for all cohorts, a baseline diurnal time point assessment of IOP in both eyes occurred at pre-dose, and 2, 4, and 8 hours post-dose relative to the planned dosing time the following day.
For cohort 1, on the morning of day 1 and day 2, all subjects were administered a single dose (one drop of approximately 30 μL of the dosing solution (Compound 1 or placebo) corresponding to the respective dose level) into the right eye only. If no AEs related to the investigational medicinal product (IMP) that represented a cause for concern were observed, then treatment was administered to both eyes once daily on the mornings of days 3 to 7. For all subsequent cohorts, dose administration was to both eyes on all 7 days (except cohort 4, in which treatment was administered in both eyes twice daily (AM and PM) on days 1-6 with a final single dose in both eyes on the morning of day 7).
Diurnal time point assessments of IOP were performed on day 1 and day 7 in both eyes at pre-dose, and 2, 4, and 8 hours post-dose in all cohorts.
The Compound 1 ophthalmic solution used for the trial was formulated as a sterile unpreserved solution of Compound 1 (0.5% w/v to 4.0% w/v, or 5 mg/mL to 40 mg/mL; as the sodium salt) in a vehicle containing 15% w/v HPβCD and 1% w/v mannitol and adjusted to a pH of 6.5-7.5 with 1N Hydrochloric Acid and/or 1N Sodium Hydroxide. The solution was filtered through sterile 0.22-μm filters, and 0.5 mL was aseptically filled into single-use sterile dose administration bottles suitable for ophthalmic delivery. Placebo was the same as the vehicle for the Compound 1 ophthalmic solution. Compound 1 was stored at United States Pharmacopeia (USP) controlled room temperature.

C57 mice = assay: IOP in mice after once daily topical dosing (rebound tonometry); assay type: in vivo, mouse
Description: Mice were handled in accordance with acceptable animal care and use guidelines. C57BL/6 (C57) mice were bred/housed in clear cages and kept in housing rooms at 21° C. with a 12 h: 12 h light-dark cycle. Mice were examined at ages between 4 to 6 months old.
Each animal was randomly assigned to receive one masked treatment (eye drops, 4% Compound 1 or vehicle) in one eye and the other masked treatment in the contralateral eye once daily for three consecutive days. IOPs of both eyes were measured prior to eye drop administration using rebound tonometry between 11 am and 1 pm daily. After collecting IOP measurements on the third day, a final drop of Compound 1 or placebo was administered and TOP was measured again 2 and 4 hours later. For TOP measurements, mice were anesthetized with ketamine (60 mg/kg) and xylazine (6 mg/kg). TOP was immediately measured as the mice stopped moving, while drifting into light sleep, but before becoming anesthetized. Each TOP measurement that was recorded was a result of an average of six independent measurements per time point, giving a total of […] measurements from the same eye.

COC(=O)N[C@@H](Cc1ccccc1)C(=O)N[C@@H](Cc1ccc(NS(=O)(=O)O)cc1)c1csc(-c2cccs2)n1 [Compound 1, 4-{(S)-2-[(S)-2-(Methoxycarbonylamino)-3-phenylpropanamido]-2-[2-(thiophen-2-yl)thiazol-4-yl]ethyl}phenylsulfamic acid]
staining of Schlemm's canal for tyrosine phosphorylated Tie-2 (pY992-Tie-2) (Tie-2): enhanced
mean diurnal IOP reduction in the study eye, relative to the 15 mg/mL dose ([1]; 40 mg/mL BID topical): −2.24 mmHg
mean diurnal IOP reduction in the study eye, relative to the 15 mg/mL dose ([1]; 40 mg/mL QD topical): −1.93 mmHg
IOP on day 7 at the 0-hour, pre-dose time point ([1]; 40 mg/ml dose, 12 hours after the previous dose): persistent TOP reduction
IOP change from baseline at 2, 4, and 8 hours post-dose ([1]; 40 mg/ml dose, days 1 and 7): significant TOP reductions from baseline
decrease of IOP (C57 mice; 4% topical QD, Day 3, 2 and 4 hours after treatment): ~30%
change in IOP relative to Day 0, mean±standard error (C57 mice; 4% topical QD, just prior to dosing on Day 1): −0.74±0.43 mmHg
change in IOP relative to Day 0, mean±standard error (C57 mice; 4% topical QD, just prior to dosing on Day 2): −1.00±0.27 mmHg
change in IOP relative to Day 0, mean±standard error (C57 mice; 4% topical QD, prior to dosing on Day 3): −1.6±0.3 mmHg
change in IOP compared to both Day 0 pretreatment and placebo treatment, mean±SE (C57 mice; Day 3, 2 hours after treatment): −3.85±1.1 mmHg
change in IOP compared to only placebo-treated eyes, mean±SE (C57 mice; Day 3, 2 hours after treatment): −5.66±1.0 mmHg
change in IOP compared to both Day 0 pretreatment and placebo treatment, mean±SE (C57 mice; Day 3, 4 hours after treatment): −3.1±0.6 mmHg
change in IOP compared to only placebo-treated eyes, mean±SE (C57 mice; Day 3, 4 hours after treatment): −4.87±0.75 mmHg
